In patent EP0792649A1, “Treatment of sleep disorders” (ELI LILLY AND COMPANY, priority 1996, dated 1997):

What was measured:
Format in all cases: in vivo, Sprague-Dawley rats
NE = assay: Microdialysis assays of monoamines: NE level in hypothalamus dialysate of conscious rats
Experimental: (§1) The tests were carried out as follows.
(§2) Sprague-Dawley rats (Harlan or Charles River) weighing 270-300 grams were surgically implanted with microdialysis probes under chloral hydrate/pentobarbital anesthesia (170 and 36 mg/kg i.p. in 30% propylene glycol, 14% ethanol) (Perry and Fuller, Effect of fluoxetine on serotonin and dopamine concentration in rat hypothalamus after administration of fluoxetine plus L-5-hydroxytryptophan, Life Sci., 50, 1683-90 (1992)). A David Kopf stereotaxic instrument was used to implant the probe unilaterally in the hypothalamus at coordinates rostral -1.5 mm, lateral -1.3 mm, and ventral -9.0 mm (Paxinos and Watson, 1986). After a 48 hour recovery period, rats were placed in a large plastic bowl with a mounted liquid swivel system (CMA/120 system for freely moving animals, Bioanalytical Systems, West Lafayette, IN). Filtered artificial cerebrospinal fluid (CSF) (150 mM NaCl, 3.0 mM KCl, 1.7 mM CaCl2, and 0.9 mM MgCl2) was perfused through the probe at a rate of 1.0 µl/min. The output dialysate line was fitted to a tenport HPLC valve with a 20 µl loop. At the end of each 30 minute sampling period, dialysate collected in the loop was injected on an analytical column (Spherisorb 3 µ ODS2, 2X150 mm, Keystone Scientific).
(§3) The method used to measure monoamines was as described by Perry and Fuller (1993). Briefly, dialysate collected in the 20 µl loop was assayed for 5-HT, NE and DA. The 20 µl injection went onto the column with a mobile phase which resolved NE, DA, and 5-HT: 75 mM potassium acetate, 0.5 mM ethylenediaminetetraacetic acid, 1.4 mM sodium octanesulfonic acid and 8% methanol, pH 4.9. The mobile phase for the amine column was delivered with a flow programmable pump at an initial flow rate of 0.2 ml/min increasing to 0.3 ml/min at 5 min then decreasing back to 0.2 ml/min at 26 min with a total run time of 30 min. Flow programming was used to elute the 5-HT within a 25 min time period. The electrochemical detector (EG&G, Model 400) for the amine column was set at a potential of 400 mV and a sensitivity of 0.2 nA/V. The data was collected and analyzed with a Hewlett-Packard HP1000 chromatography system which measured peak heights and calculated sample concentrations. Basal levels were measured for at least 90 minutes prior to drug administration.
(§4) Extracellular levels of the amines in microdialysates were calculated by comparing peak heights with those of 50 pmole standards. The mean value of the four samples immediately preceding drug administration served as the basal level for each experiment and data was converted to percent of basal. Paired t-tests were used to compare the mean of the basal values from the time point immediately preceding drug administration to those of each time point thereafter.
(§5) The rats were prepared as described above, and the indole was administered subcutaneously at 3 mg/kg 100 minutes after the start of the experiment. Fluoxetine was administered intraperitoneally at 10 mg/kg, together with a second dose of the indole at 3 mg/kg, 210 minutes after the start of the experiment. Each data point reported here represents a single animal.
(§6) The results are shown below as percent of baseline of the three monoamines, at various times after the start of the experiment. Each data point represents the average of three or more animals.
(§7) This test was carried out as described in Test 1, using 4-(2-hydroxy-3-cyclohexylaminopropoxy)indole, maleate, at 3 mg/kg administered at 120 minutes, and (+)-duloxetine, hydrochloride, at 4 mg/kg administered with a second dose of the indole at 3 mg/kg, at 270 minutes. Results are reported as in Test 2 above. The 5-HT results are the average of three animals, and the other results are the average of four animals.

DA = assay: Microdialysis assays of monoamines: DA level in hypothalamus dialysate of conscious rats
Experimental: as §1, §2, §3, §4, §5, §6, §7

5-HT = assay: Microdialysis assays of monoamines: 5-HT level in hypothalamus dialysate of conscious rats; conditions: for 5-HT level measured in the dialysate, % of baseline: Test 1, single animal; for 5-HT, percent of baseline: Test 3, average of three animals
Experimental: as §1, §2, §3, §4, §5, §6, §7

[1] = Test 2, 120 min (time of first (-)-pindolol dose, 5 mg/kg), average of three or more animals
[2] = Test 2, 150 min, (-)-pindolol 5 mg/kg at 120 min, average of three or more animals
[3] = Test 2, 180 min, (-)-pindolol 5 mg/kg at 120 min, average of three or more animals
[4] = Test 2, 210 min, (-)-pindolol 5 mg/kg at 120 min, average of three or more animals
[5] = Test 3, 120 min (time of first indole dose, 3 mg/kg), average of four animals
[6] = Test 3, 150 min, the indole 3 mg/kg at 120 min, average of four animals
[7] = Test 3, 180 min, the indole 3 mg/kg at 120 min, average of four animals
[8] = Test 3, 210 min, the indole 3 mg/kg at 120 min, average of four animals
[9] = Test 3, 240 min, the indole 3 mg/kg at 120 min, average of four animals
[10] = Test 3, 270 min, the indole 3 mg/kg at 120 min, average of four animals

CC(C)NCC(O)COc1cccc2[nH]ccc12 (single isomer, unassigned; (-)) [(-)-pindolol, 4-(2-hydroxy-3-isopropylaminopropoxy)-indole] was tested, and the “NE, percent of baseline” value (NE; [1]) was 90%, the “NE, percent of baseline” value (NE; [2]) was 100% and the “NE, percent of baseline” value (NE; [3]) was 120%. For the same compound, the “NE, percent of baseline” value (NE; [4]) was 110%, the “DA, percent of baseline” value (DA; [1]) was 90% and the “DA, percent of baseline” value (DA; [2]) was 90%. The “DA, percent of baseline” value (DA; [3]) was 70% and the “DA, percent of baseline” value (DA; [4]) was 100%.
With O=C(O)/C=C\C(=O)O.OC(CNC1CCCCC1)COc1cccc2[nH]ccc12 (centres unmarked) [4-(2-hydroxy-3-cyclohexylaminopropoxy)indole, maleate] the “NE level, relative to baseline” value (NE; Test 1, by 210 min, the indole 3 mg/kg s.c. at 100 min, single animal) was “nearly to baseline”, the “NE level, % of baseline” value (NE; Test 1, highest level after the indole 3 mg/kg s.c. at 100 min, single animal) was “about 180%” and the “NE, percent of baseline” value (NE; [5]) was 100%. The “NE, percent of baseline” value (NE; [6]) was 160%, the “NE, percent of baseline” value (NE; [7]) was 140% and the “NE, percent of baseline” value (NE; [8]) was 140%. For the same compound, the “NE, percent of baseline” value (NE; [9]) was 130%, the “NE, percent of baseline” value (NE; [10]) was 150% and the “5-HT level measured in the dialysate, % of baseline” value (5-HT; 210 min after start, the indole 3 mg/kg s.c. at 100 min) was “about 80%”. For the same compound, the “5-HT level measured in the dialysate, % of baseline” value (5-HT; lowest level after the indole 3 mg/kg s.c. at 100 min) was “about 50%”, the “5-HT, percent of baseline” value (5-HT; 120 min (time of first indole dose, 3 mg/kg)) was 90% and the “5-HT, percent of baseline” value (5-HT; 150 min, the indole 3 mg/kg at 120 min) was 130%. The “5-HT, percent of baseline” value (5-HT; 180 min, the indole 3 mg/kg at 120 min) was 130%, the “5-HT, percent of baseline” value (5-HT; 210 min, the indole 3 mg/kg at 120 min) was 80% and the “5-HT, percent of baseline” value (5-HT; 240 min, the indole 3 mg/kg at 120 min) was 90%. The “5-HT, percent of baseline” value (5-HT; 270 min, the indole 3 mg/kg at 120 min) was 80%, the “DA level, % of baseline” value (DA; Test 1, 120 min, the indole 3 mg/kg s.c. at 100 min, single animal) was “about 210%” and the “DA level, relative to baseline” value (DA; Test 1, 210 min, the indole 3 mg/kg s.c. at 100 min, single animal) was “near baseline”. For the same compound, the “DA, percent of baseline” value (DA; [5]) was 70%, the “DA, percent of baseline” value (DA; [6]) was 150% and the “DA, percent of baseline” value (DA; [7]) was 130%. For the same compound, the “DA, percent of baseline” value (DA; [8]) was 110%, the “DA, percent of baseline” value (DA; [9]) was 100% and the “DA, percent of baseline” value (DA; [10]) was 110%.
